# Measurements taken from the supplement of paper PMC10307832.
# How the values were obtained:
# Experiment in all cases: relative viability (nuclei count vs DMSO), 5 days (fraction); higher = more cells survive
# [1] = compound: NCC(=O)Nc1ccc(-n2nc(C(F)(F)F)cc2-c2ccc3c(ccc4ccccc43)c2)cc1 + CC(=O)Nc1cccc(-n2c(=O)n(C3CC3)c(=O)c3c(Nc4ccc(I)cc4F)n(C)c(=O)c(C)c32)c1 [Trametinib] (partner 0.02 µM)
# Method in brief: (§1)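 Relative viability divides the nuclei count in treated wells by that in vehicle wells. Lung cancer cell lines were seeded in 1536-well plates, dosed by pin tool the next day, and fixed and stained after 5 days in one step with final 0.05% Triton X-100, 1% formaldehyde and 1 ug/ml Hoechst. Dosing was a single drug or a fixed anchor-drug dose plus five library-drug doses (not always all listed) in √10 steps, and values are medians of duplicate plates imaged at 4×.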
# kb NB 142-70 + Foretinib = compound: C1CSC2=C(C(=O)N1)SC3=C2C=C(C=C3)O [kb NB 142-70] + COc1cc2c(Oc3ccc(NC(=O)C4(C(=O)Nc5ccc(F)cc5)CC4)cc3F)ccnc2cc1OCCCN1CCOCC1 [Foretinib] (partner 0.25 µM)
# Method in brief: as §1
# [2] = compound: NCC(=O)Nc1ccc(-n2nc(C(F)(F)F)cc2-c2ccc3c(ccc4ccccc43)c2)cc1 + CS(=O)(=O)N1CCN(Cc2cc3nc(-c4cccc5[nH]ncc45)nc(N4CCOCC4)c3s2)CC1 [Pictilisib] (partner 1 µM)
# Method in brief: as §1
# [3] = compound: C1CSC2=C(C(=O)N1)SC3=C2C=C(C=C3)O [kb NB 142-70] + C[C@]1(O)C[C@@H](c2nc(-c3ccc4ccc(-c5ccccc5)nc4c3)c3c(N)nccn32)C1 [Linsitinib] (partner 1 µM)
# Method in brief: as §1
# [4] = compound: C1CSC2=C(C(=O)N1)SC3=C2C=C(C=C3)O [kb NB 142-70] + C[C@@H](Oc1cc(-c2cnn(C3CCNCC3)c2)cnc1N)c1c(Cl)ccc(F)c1Cl [Crizotinib] (partner 1 µM)
# Method in brief: as §1
Cell Line,relative viability ([1]; first compound 0.02 µM),relative viability ([1]; first compound 0.06325 µM),relative viability ([1]; first compound 0.2 µM),relative viability ([1]; first compound 0.6325 µM),relative viability ([1]; first compound 2 µM),relative viability (kb NB 142-70 + Foretinib; first compound 0.1 µM),relative viability (kb NB 142-70 + Foretinib; first compound 1 µM),relative viability (kb NB 142-70 + Foretinib; first compound 3.162 µM),relative viability ([2]; first compound 0.02 µM),relative viability ([2]; first compound 0.06325 µM),relative viability ([2]; first compound 0.2 µM),relative viability ([2]; first compound 0.6325 µM),relative viability ([2]; first compound 2 µM),relative viability ([3]; first compound 0.1 µM),relative viability ([3]; first compound 1 µM),relative viability ([3]; first compound 3.162 µM),relative viability ([4]; first compound 0.1 µM),relative viability ([4]; first compound 1 µM),relative viability ([4]; first compound 3.162 µM)
NCI-H2342,0.887,0.877,0.965,0.833,0.776,0.96,1.03,0.978,–,–,–,–,–,–,–,–,–,–,–
HCC-15,0.386,0.416,0.447,0.369,0.363,1.01,1.13,0.946,0.705,0.773,0.8,0.747,0.743,0.86,0.89,0.697,0.773,0.85,0.813
A-427,0.722,0.787,0.866,0.721,0.783,1.14,1.25,0.929,0.595,0.726,0.744,0.739,0.815,1.04,1.12,1.01,0.937,1.01,0.908
NCI-H2228,0.559,0.593,0.548,0.572,0.553,0.956,0.939,0.543,0.473,0.471,0.355,0.299,0.481,0.525,0.872,0.629,0.519,0.561,0.27
NCI-H1734,0.686,0.712,0.667,0.657,0.7,0.873,0.738,0.456,0.451,0.462,0.464,0.43,0.474,0.813,0.734,0.553,0.68,0.652,0.383
PC-14,0.861,0.704,–,0.625,0.608,0.936,0.919,1.07,0.606,0.702,0.704,0.67,0.62,0.982,0.968,0.955,0.933,0.909,0.92
NCI-H1915,0.284,0.314,0.31,0.296,0.322,1.1,1.12,0.82,0.79,1.05,0.922,0.914,0.999,1.11,1.11,0.716,0.887,0.915,0.481
NCI-H1666,0.905,0.849,0.914,0.868,0.851,0.993,1.02,0.814,0.554,0.424,0.437,0.505,0.404,0.858,0.831,0.483,1.09,0.871,0.676
HCC-366,0.361,0.408,0.467,0.354,0.271,0.93,0.858,0.895,0.147,0.205,0.174,0.172,0.141,0.658,0.462,0.214,0.533,0.633,0.463
SK-MES-1,0.56,0.555,0.612,0.511,0.593,0.875,0.939,0.985,0.382,0.313,0.334,0.355,0.42,1.07,1.15,0.722,1.01,1.02,0.72
SW 1573,0.551,0.436,0.637,0.565,0.476,0.892,0.797,0.605,0.513,0.545,0.493,0.514,0.486,0.744,0.693,0.351,0.832,0.815,0.526
NCI-H661,0.547,0.559,0.56,0.644,0.588,0.996,1.02,1.01,0.453,0.389,0.357,0.325,0.407,0.561,0.607,0.602,1.05,0.969,1.22
PC-3 [JPC-3],0.701,0.776,0.715,0.71,0.775,0.999,1.07,1.01,0.645,0.855,0.739,0.745,0.88,0.971,0.98,0.881,0.985,1.05,0.916
NCI-H1623,–,–,–,–,–,0.932,0.843,0.722,–,–,–,–,–,–,–,–,–,–,–
Calu-6,–,–,–,–,–,0.809,0.896,0.54,0.849,0.891,0.975,0.949,0.93,0.93,0.889,0.683,0.748,0.839,0.384
LC-2-ad,0.952,0.971,0.951,0.95,0.935,0.977,0.953,0.668,0.428,0.503,0.377,0.453,0.403,0.791,0.825,0.677,0.446,0.429,0.421
CAL-12T,0.304,0.401,0.394,0.339,0.362,1.03,1.18,0.837,0.392,0.617,0.481,0.404,0.475,0.859,0.869,1.03,0.605,0.802,0.611
RERF-LC-KJ,0.89,0.839,0.847,0.843,0.848,0.941,0.905,0.938,0.568,0.62,0.663,0.66,0.517,0.918,0.957,0.923,0.819,0.93,0.924
NCI-H1650,0.403,0.54,0.648,0.769,0.642,1.44,1.23,1.18,0.616,0.656,0.215,0.652,0.556,–,–,–,0.833,1.01,1.08
BEN,0.861,1.15,1.05,0.938,1.11,0.535,0.648,0.486,0.54,0.581,0.55,0.547,0.576,0.793,0.893,0.724,0.791,0.906,0.69

Cell Line,relative viability ([1]; first compound 0.02 µM),relative viability ([1]; first compound 0.06325 µM),relative viability ([1]; first compound 0.2 µM),relative viability ([1]; first compound 0.6325 µM),relative viability ([1]; first compound 2 µM),relative viability (kb NB 142-70 + Foretinib; first compound 0.1 µM),relative viability (kb NB 142-70 + Foretinib; first compound 1 µM),relative viability (kb NB 142-70 + Foretinib; first compound 3.162 µM),relative viability ([2]; first compound 0.02 µM),relative viability ([2]; first compound 0.06325 µM),relative viability ([2]; first compound 0.2 µM),relative viability ([2]; first compound 0.6325 µM),relative viability ([2]; first compound 2 µM),relative viability ([3]; first compound 0.1 µM),relative viability ([3]; first compound 1 µM),relative viability ([3]; first compound 3.162 µM),relative viability ([4]; first compound 0.1 µM),relative viability ([4]; first compound 1 µM),relative viability ([4]; first compound 3.162 µM)
EMC-BAC-2,0.824,0.909,0.877,0.96,0.887,0.994,1.01,0.581,0.509,0.558,0.558,0.545,0.506,0.805,0.798,0.747,0.782,0.893,0.625
LU99A,0.548,0.678,0.569,0.56,0.48,0.781,0.765,0.569,0.338,0.36,0.321,0.311,0.294,0.519,0.518,0.341,0.577,0.506,0.397
ABC-1,–,–,–,–,–,1.11,0.979,0.677,0.808,0.81,–,0.745,0.563,0.976,0.984,0.683,1.02,1.31,0.497
NCI-H2170,0.89,0.91,0.989,0.884,0.912,0.996,1.07,0.953,0.233,0.325,0.319,0.328,0.323,–,–,–,1.21,1.22,1.04
NCI-H1299,–,–,–,–,–,1.08,1.12,1.11,0.346,0.8,0.804,0.781,0.732,1.07,1.07,1.14,0.928,0.969,0.893
EBC-1,–,–,–,–,–,0.0986,0.12,0.0991,0.324,0.37,0.434,0.36,0.404,0.897,0.952,0.817,0.196,0.209,0.155
NCI-H2347,0.311,0.285,0.297,0.268,0.357,0.744,1.21,0.72,0.831,0.668,0.706,0.738,0.711,0.975,1.03,1.03,0.685,0.707,0.594
NCI-H1648,0.414,0.533,0.573,0.563,0.506,–,–,–,–,–,–,–,–,–,–,–,–,–,–
NCI-H1792,0.486,0.425,0.471,0.406,0.436,–,–,–,0.244,0.319,0.277,0.315,0.344,0.598,0.616,0.688,0.995,1.01,0.914
ChaGo-K-1,0.832,0.903,0.882,0.83,0.842,0.89,0.967,0.862,0.617,0.784,0.394,0.676,1.04,–,–,–,1.1,1.16,1.13
HCC-44,0.792,1.1,1.05,1.11,1.02,–,–,–,0.5,0.638,0.633,0.684,0.659,0.689,0.716,0.658,0.777,0.883,0.907
NCI-H1793,0.438,0.373,0.498,0.435,0.396,0.603,0.742,0.813,0.263,0.401,0.343,0.455,0.349,0.832,1.08,0.905,–,–,–
A549,–,–,–,–,–,0.997,0.95,0.563,0.459,0.495,0.564,0.565,0.517,0.551,0.524,0.499,0.762,0.861,0.213
NCI-H1563,–,–,–,–,–,0.95,0.986,0.935,0.69,0.683,0.669,0.611,0.622,1.19,1.19,1.28,0.864,0.853,0.839
NCI-H1395,1.09,0.998,1.1,1.03,1.09,0.942,1.04,0.946,0.648,0.641,0.581,0.563,0.642,1.15,1.26,0.765,–,–,–
NCI-H522,0.596,0.684,0.781,0.92,0.813,–,–,–,–,–,–,–,–,–,–,–,–,–,–
IA-LM,–,–,–,–,–,1.31,1.34,1.37,0.444,0.356,0.302,0.477,0.288,0.621,0.771,0.87,0.856,1.25,0.894
NCI-H1703,–,–,–,–,–,0.351,0.338,0.346,0.218,0.244,0.278,0.255,0.262,0.975,0.625,0.823,0.681,0.866,0.489
SW 900,0.889,1.04,1,0.736,0.78,1.06,1.2,0.436,–,–,–,–,–,–,–,–,–,–,–
